From patent US9018173B2, “Materials and methods for suppressing inflammatory and neuropathic pain” (Indiana University Research and Technology Corp., priority 2010, dated 2015)

Test system: CaV2.2 surface expression in CAD cells
Experiment: CaV2.2 surface expression in CAD cells (immunocytochemistry, surface biotinylation)
Format: cell-based
Experimental: Catecholamine A Differentiated (CAD) cells. CAD cells were grown at 37° C. and in 5% CO2 (Sarstedt, Newton, N.C.) in Ham's F12/EMEM medium (GIBCO, Grand Island, N.Y.), supplemented with 8% fetal bovine serum (FBS; Sigma, St. Louis, Mo.) and 1% penicillin/streptomycin ([…], 10,000 U/ml penicillin G sodium and 10,000 μg/ml streptomycin sulfate). Cells were passaged every 6-7 days at a 1:25 dilution.
Transient transfection. Adherent cultures were transfected with cDNAs using Lipofectamine 2000 (Invitrogen) as described previously. About 2-3% transfection efficiencies in hippocampal neurons was achieved routinely, 35-40% in DRG, and 75-80% in CAD cells transfected with this method. Typically, cultured cells were transfected with equal amounts of different cDNA constructs and experiments performed two days later.
Cell Surface Biotinylation. Biotinylation was performed as described. […]
Immunocytochemistry. […] Images were acquired on a Nikon Ti swept-field confocal microscope using a 60×, 1.4 NA lens and standard FITC/Texas red fluorescence cubes with a cooled Cascade 512B digital camera (Photometrics, Tucson, Ariz.). […]

ARSRLAELRGVPRGL (CBD3)
CaV2.2 localisation on co-expression (co-expression of CaV2.2 with CBD3 in CAD cells): almost complete retention of the channel in cytoplasmic aggregates | surface expression of co-expressed CaV2.2 (surface biotinylation) (expressed in CAD cells): prevented surface expression
